Our source for the Inhibition values is US20070073056A1, “4-Substituted Pyrazoline Compounds, their Preparation and Use as Medicaments” (LABORATORIOS DEL DR. ESTEVE, S.A., priority 2005, published 2007).

For the assay, the target named is CB1-receptor (UniProt P20272). Briefly: binding of the pyrazoline compounds to CB1-receptors (Pharmacological Methods, Part I). Set-up: other: 10^−7 M; other: 10^−8 M; species or system human or rat. Here is the method: I. In-vitro Determination of Affinity to CB1/CB2-Receptors
The in-vitro determination of the affinity of the inventive 4-substituted pyrazoline compounds to CB1/CB2-Rezeptors is carried out as described in the publication of Ruth A. Ross, Heather C. Brockie et al., “Agonist-inverse agonist characterisation at CB1 and CB2 cannabinoid receptors of L-759633, L759656 and AM630”, British Journal of Pharmacology, 126, 665-672, (1999), whereby the transfected human CB1 and CB2 receptors of Receptor Biology, Inc. are used. The radioligand used for both receptors is [^3H]-CP55940. The respective parts of the description is hereby incorporated by reference and forms part of the present disclosure.
Rat Cerebellum CB1 Binding
Binding affinity to CB1 receptor was evaluated according to a modification of the method described by Govaerts et al., Eur J Pharmac Sci 23, 233-243 (2004). The respective parts of the description is hereby incorporated by reference and forms part of the present disclosure.
Briefly, cerebellum from male wistar rats (250-300 g) were carefully dissected on ice and homogenates were prepared with Potter-Helveheim in a cold 50 mM Tris-HCl solution containing 5 mM MgCl2, 1 mM EDTA and 0.25 M sucrose, pH 7.4. The suspension was centrifuged at […] for 5 minutes. The supernatants were collected and centrifuged 50,000×g for 15 minutes. The resulting pellets were then resuspended in Tris-HCl buffer without sucrose, homogenized and incubated for 15 min at 37° C. in an orbital shaker bath and centrifuged again at 50,000×g for 15 min. Pellets were weighted, resuspended in Tris-HCl buffer without sucrose, homogenized with Ultraturrax at 13,500 rpm for 3×5 seconds and alicuoted in 0.9 ml volumes in Eppendorf tubes. Alicuotes were centrifuged at 20,800×g for 5 minutes, supernatants discarded and pellets were frozen at −80° C. until use. Total protein concentration was determined using the Bio-Rad Lowry method based kit. Competitive binding experiments were performed in presence of 1 nM [^3H]-CP 55,940 in siliconized glass tubes containing 100 μg protein/tube resuspended in 1 ml final volume of 50 mM Tris-HCl, 5 mM MgCl2, 1 mM EDTA, 0.5% (w/v) bovine serum albumin, pH 7.4. Compounds were present at various concentrations and the non specific binding was determined in the presence of 10 μM HU-210. After 1 hour incubation at 30° C., the suspension was rapidly filtered through 0.5% PEI pre-treated GF/B fiber filters on a 96-well harvester and washed 3 times with 3 ml ice-cold binding buffer without bovine serum albumin. Radioactivity on filters was measured with Wallac Winspectral 1414 counter by liquid scintillation in 6 ml Ecoscint H (National Diagnostics, U.K.). Assays were made in triplicates.
Binding data were analyzed by non-linear regression with the software GraphPad Prism Version 3.03.
The binding of the pyrazoline compounds of general formula I to CB1-receptors was determined according to the method described in the section Pharmacological Methods, Part I.

For `C[C@@H]1C(C(=O)NN2CCCCC2)=NN(c2ccc(Cl)cc2Cl)[C@H]1c1ccc(O)cc1` (relative stereo) [Example 344, trans-1-(2,4-dichlorophenyl)-5-(4-hydroxyphenyl)-4-methyl-N-(piperidin-1-yl)-4,5-dihydro-1H-pyrazole-3-carboxamide], the Inhibition was −23.3% (10^−7 M) and −27.3 (10^−8 M, in %).

As to `COc1ccc([C@@H]2[C@@H](C)C(C(=O)O)=NN2c2ccc(Cl)cc2Cl)cc1` [Example 412, (4R,5S)-1-(2,4-dichlorophenyl)-5-(4-methoxyphenyl)-4-methyl-4,5-dihydro-1H-pyrazole-3-carboxylic acid], the Inhibition is, setting by setting: (10^−7 M) −15.4%; (10^−8 M, in %) −11.1.

Take `CCOC(=O)C1=NN(c2ccc(Cl)cc2Cl)[C@@H](c2ccccc2)[C@@H]1C` (relative stereo) [Example 421, trans-ethyl 1-(2,4-dichlorophenyl)-4-methyl-5-phenyl-4,5-dihydro-1H-pyrazole-3-carboxylate]: the Inhibition is listed as 31.2% (10^−7 M) and 38 (10^−8 M, in %).

With `C[C@@H]1C(C(=O)N[C@H]2CCCC[C@@H]2O)=NN(c2ccc(Cl)cc2Cl)[C@@H]1c1ccc(Cl)cc1` (mixture of isomers) [Example 128, (+)-cis-5-(4-chlorophenyl)-1-(2,4-dichlorophenyl)-N-((1S,2S)-2-hydroxycyclohexyl)-4-methyl-4,5-dihydro-1H-pyrazole-3-carboxamide], the Inhibition reads like this: (10^−7 M) 35.3%; (10^−8 M, in %) 18.0.

As to `CC[C@@H]1C(C(=O)NN2CCCCC2)=NN(c2ccc(Cl)cc2Cl)[C@@H]1c1ccc(Br)cc1.Cl` (relative stereo) [Example 428, cis-5-(4-bromophenyl)-1-(2,4-dichlorophenyl)-4-ethyl-N-(piperidin-1-yl)-4,5-dihydro-1H-pyrazole-3-carboxamide hydrochloride], the Inhibition worked out at 42.6% (10^−7 M) and 28.4 (10^−8 M, in %).

Turning to `C[C@H]1C(C(=O)O)=NN(c2ccc(Cl)cc2Cl)[C@H]1c1cccs1` (racemic) [Example 367, cis-1-(2,4-dichlorophenyl)-4-methyl-5-(thiophen-2-yl)-4,5-dihydro-1H-pyrazole-3-carboxylic acid], the Inhibition runs as follows: (10^−7 M) 11%; (10^−8 M, in %) 7.2.

As for `C[C@@H]1C(C(=O)NN2Cc3cccc4cccc(c34)C2)=NN(c2ccc(Cl)cc2Cl)[C@@H]1c1ccc(Cl)cc1` (relative stereo) [Example 105, cis-5-(4-Chlorophenyl)-1-(2,4-dichlorophenyl)-4-methyl-4,5-dihydro-1H-pyrazole-3-carboxylic acid (1H,3H-benzo[de]isoquinolin-2-yl)-amide], the Inhibition (10^−7 M) was 31.4% and the Inhibition (10^−8 M, in %) is listed as 35.9.

As for `COc1ccc([C@H]2[C@@H](C)C(C(=O)O)=NN2c2ccc(Cl)cc2Cl)cc1` (racemic) [Example 261, cis-1-(2,4-dichlorophenyl)-5-(4-methoxyphenyl)-4-methyl-4,5-dihydro-1H-pyrazole-3-carboxylic acid], the Inhibition runs as follows: (10^−7 M) −6.9%; (10^−8 M, in %) −5.

`C[C@@H]1C(C(=O)NN2CCCCCC2)=NN(c2ccc(Cl)cc2Cl)[C@@H]1c1ccc(F)cc1` (stereo in doubt) [Example 414, cis-N-(azepan-1-yl)-1-(2,4-dichlorophenyl)-5-(4-fluorophenyl)-4-methyl-4,5-dihydro-1H-pyrazole-3-carboxamide]: the Inhibition (10^−7 M) came to 36.2% and the Inhibition (10^−8 M, in %) is listed as 28.7.

As to `CC[C@H]1C(C(=O)O)=NN(c2ccc(Cl)cc2Cl)[C@H]1c1ccc(Cl)cc1` (racemic) [Example 21, cis-5-(4-Chloro-phenyl)-1-(2,4-dichloro-phenyl)-4-ethyl-4,5-dihydro-1H-pyrazole-3-carboxylic acid], the Inhibition is given as 23% (10^−7 M) and 11 (10^−8 M, in %).

On to `C[C@@H]1C(C(=O)O)=NN(c2ccccc2Cl)[C@@H]1c1ccc(Cl)s1` (relative stereo) [Example 363, cis-1-(2-chlorophenyl)-5-(5-chlorothiophen-2-yl)-4-methyl-4,5-dihydro-1H-pyrazole-3-carboxylic acid], for which the Inhibition (10^−7 M) stood at 11.3% and the Inhibition (10^−8 M, in %) is 12.2.

Take `COc1ccc([C@@H]2[C@H](C)C(C(=O)N[C@H]3CCCC[C@@H]3O)=NN2c2ccc(Cl)cc2Cl)cc1` (mixture of isomers) [Example 282, (−)-cis-1-(2,4-dichlorophenyl)-N-((1S,2S)-2-hydroxycyclohexyl)-5-(4-methoxyphenyl)-4-methyl-4,5-dihydro-1H-pyrazole-3-carboxamide]: the Inhibition amounted to 44.3% (10^−7 M) and 9.6 (10^−8 M, in %).

In the case of `C[C@@H]1C(C(=O)NCC2CCCCC2)=NN(c2ccc(Cl)cc2Cl)[C@@H]1c1ccc(Cl)cc1` (relative stereo) [Example 114, cis-5-(4-chlorophenyl)-N-(cyclohexylmethyl)-1-(2,4-dichlorophenyl)-4-methyl-4,5-dihydro-1H-pyrazole-3-carboxamide], the Inhibition is on record as 28.3% (10^−7 M) and −13 (10^−8 M, in %).

For `C[C@H]1C(C(=O)NN2CCc3ccccc32)=NN(c2ccc(Cl)cc2Cl)[C@H]1c1ccc(F)cc1` (relative stereo) [Example 235, cis-1-(2,4-dichlorophenyl)-5-(4-fluorophenyl)-N-(indolin-1-yl)-4-methyl-4,5-dihydro-1H-pyrazole-3-carboxamide], the Inhibition was found to be 25.9% (10^−7 M) and 5.4 (10^−8 M, in %).

Take `COC[C@H]1CCCN1NC(=O)C1=NN(c2ccc(Cl)cc2Cl)[C@H](c2ccc(Cl)cc2)[C@@H]1C.Cl` (mixture of isomers) [Example 106, cis-5-(4-chlorophenyl)-1-(2,4-dichlorophenyl)-N-((R)-2-(methoxymethyl)pyrrolidin-1-yl)-4-methyl-4,5-dihydro-1H-pyrazole-3-carboxamide hydrochloride]: the Inhibition (10^−7 M) amounted to 39% and the Inhibition (10^−8 M, in %) is on record as 20.4.

Take `C[C@@H]1C(C(=O)N[C@H]2CCCC[C@@H]2OCc2ccccc2)=NN(c2ccc(Cl)cc2Cl)[C@@H]1c1ccc(Cl)cc1` (mixture of isomers) [Example 409, (+)-cis-N-((1S,2S)-2-(benzyloxy)cyclohexyl)-5-(4-chlorophenyl)-1-(2,4-dichlorophenyl)-4-methyl-4,5-dihydro-1H-pyrazole-3-carboxamide]: the Inhibition (10^−7 M) was −5.8% and the Inhibition (10^−8 M, in %) is recorded as −37.

Take `C[C@H]1C(C(=O)O)=NN(c2ccc(Cl)cc2Cl)[C@H]1c1ccc(F)cc1` (racemic) [Example 221, cis-1-(2,4-dichlorophenyl)-5-(4-fluorophenyl)-4-methyl-4,5-dihydro-1H-pyrazole-3-carboxylic acid]: the Inhibition runs as follows: (10^−7 M) −6.3%; (10^−8 M, in %) −2.2.

For `C[C@@H]1C(C(=O)N[C@H]2C[C@H]3CC[C@]2(C)C3(C)C)=NN(c2ccc(Cl)cc2Cl)[C@@H]1c1ccc(Cl)cc1` (mixture of isomers) [Example 422, cis-5-(4-chlorophenyl)-1-(2,4-dichlorophenyl)-4-methyl-N-((1R,2S,4R)-1,7,7-trimethylbicyclo[2.2.1]heptan-2-yl)-4,5-dihydro-1H-pyrazole-3-carboxamide], the Inhibition is listed as −2% (10^−7 M) and −8.4 (10^−8 M, in %).

For the compound `C[C@@H]1C(C(=O)NN2CCCCC2)=NN(c2ccc(Cl)cc2Cl)[C@@H]1c1ccc(Cl)cc1` [Example 420, (+)-cis-5-(4-chlorophenyl)-1-(2,4-dichlorophenyl)-4-methyl-N-(piperidin-1-yl)-4,5-dihydro-1H-pyrazole-3-carboxamide], the Inhibition (10^−7 M) is 30.4% and the Inhibition (10^−8 M, in %) is reported as 2.8.

Take `C[C@@H]1C(C(=O)NN2CCCCC2)=NN(c2ccc(Cl)cc2Cl)[C@@H]1c1ccc(F)cc1.Cl` (relative stereo) [Example 417, cis-1-(2,4-dichlorophenyl)-5-(4-fluorophenyl)-4-methyl-N-(piperidin-1-yl)-4,5-dihydro-1H-pyrazole-3-carboxamide hydrochloride]: the Inhibition is, setting by setting: (10^−7 M) 38.5%; (10^−8 M, in %) 14.8.
